Assays:
Experiment in all cases: Ba/F3 drug screening, Cell Titer Glo, IC50 Mut/WT
Format in all cases: cell-based
EGFR E709K L858R = molecular target: T1, EGFR E709K L858R (Homo sapiens, UniProt P00533, E709K/L858R); conditions: Classical-Like, 72 hours
T1 construct: expressed in transfected cells; host or cells: Ba/F3 cells, retroviral pBabe-Puro vector

EGFR L833F = molecular target: T2, EGFR L833F (Homo sapiens, UniProt P00533, L833F); conditions: Classical-Like, 72 hours
T2 construct: expressed in transfected cells; host or cells: Ba/F3 cells, retroviral pBabe-Puro vector

EGFR Ex19del = molecular target: T3, EGFR Ex19del (Homo sapiens, UniProt P00533, DEL746-750); conditions: Classical-Like, 72 hours
T3 construct: expressed in transfected cells; host or cells: Ba/F3 cells, retroviral pBabe-Puro vector
Method: (§1) Data represent the ratio of the IC50 value for a given TKI for cells with a classical-like EGFR mutation to the IC50 value for cells with wildtype EGFR.
(§2) Ba/F3 cell generation, drug screening, and IC50 approximations. Ba/F3 cells were obtained as a gift from Dr. Gordon Mills (MD Anderson Cancer Center), and maintained in RPMI (Sigma) containing 10% FBS, 1% penicillin/streptomycin, and 10 ng/ml recombinant mIL-3 (R&D Biosystems). To establish stable Ba/F3 cell lines, Ba/F3 cells were transduced with retroviruses containing mutant EGFR plasmids for 12-24 hours.
(§3) After 48-72 hours of transduction, 2 μg/ml puromycin (Invitrogen) was added to Ba/F3 cell lines in complete RPMI. To select for EGFR positive cell lines, cells were stained with PE-EGFR (Biolegend) and sorted by FACS. After sorting, EGFR positive cells were maintained in RPMI containing 10% FBS, 1% penicillin/streptomycin, and 1 ng/ml EGF to support cell viability. […] Shortly, cells were plated in 384-well plates (Greiner Bio-One) at 2000-3000 cells per well in technical triplicate. Seven different concentrations of TKIs or DMSO vehicle were added to reach a final volume of 40 μL per well. After 72 hours, 11 μL of Cell Titer Glo (Promega) was added to each well. Plates were incubated for a minimum of 10 minutes, and bioluminescence was determined using a FLUOstar OPTIMA plate reader (BMG LABTECH). Raw bioluminescence values were normalized to DMSO control treated cells, and values were plotted in GraphPad Prism. […] Drug screens were performed in technical triplicate on each plate and either duplicate or triplicate biological replicates.

EGFR L858R S784F = molecular target: T4, EGFR L858R S784F (Homo sapiens, UniProt P00533, L858R/S784F); conditions: Classical-Like, 72 hours
T4 construct: expressed in transfected cells; host or cells: Ba/F3 cells, retroviral pBabe-Puro vector (vector made by GeneScript from EGFR L858R)

EGFR S720P = molecular target: T5, EGFR S720P (Homo sapiens, UniProt P00533, S720P); conditions: Classical-Like, 72 hours
T5 construct: expressed in transfected cells; host or cells: Ba/F3 cells, retroviral pBabe-Puro vector (vector made by GeneScript from EGFR WT)

EGFR L861Q = molecular target: T6, EGFR L861Q (Homo sapiens, UniProt P00533, L861Q); conditions: Classical-Like, 72 hours
T6 construct: expressed in transfected cells; host or cells: Ba/F3 cells, retroviral pBabe-Puro vector

EGFR A763insFQEA = molecular target: T7, EGFR A763insFQEA (Homo sapiens, UniProt P00533, INS763FQEA); conditions: Classical-Like, 72 hours
T7 construct: expressed in transfected cells; host or cells: Ba/F3 cells, retroviral pBabe-Puro vector

EGFR A763insLQEA = molecular target: T8, EGFR A763insLQEA (Homo sapiens, UniProt P00533, INS763LQEA); conditions: Classical-Like, 72 hours
T8 construct: expressed in transfected cells; host or cells: Ba/F3 cells, retroviral pBabe-Puro vector
Method: as §1, §2, §3

EGFR S768dupSVD = molecular target: T9, EGFR S768dupSVD (Homo sapiens, UniProt P00533, DUP768-770); conditions: Ex20, 72 hours
T9 construct: expressed in transfected cells; host or cells: Ba/F3 cells, retroviral pBabe-Puro vector
Method: (§4) Data represent the ratio of the IC50 value for a given TKI for cells with an ex20ins EGFR mutation to the IC50 value for cells with wildtype EGFR.
as §2
(§5) After 48-72 hours of transduction, 2 μg/ml puromycin (Invitrogen) was added to Ba/F3 cell lines in complete RPMI. To select for EGFR positive cell lines, cells were stained with PE-EGFR (Biolegend) and sorted by FACS. After sorting, EGFR positive cells were maintained in RPMI containing 10% FBS, 1% penicillin/streptomycin, and 1 ng/ml EGF to support cell viability. Drug screening was performed as previously described^41,42. Shortly, cells were plated in 384-well plates (Greiner Bio-One) at 2000-3000 cells per well in technical triplicate. Seven different concentrations of TKIs or DMSO vehicle were added to reach a final volume of 40 μL per well. After 72 hours, 11 μL of Cell Titer Glo (Promega) was added to each well. Plates were incubated for a minimum of 10 minutes, and bioluminescence was determined using a FLUOstar OPTIMA plate reader (BMG LABTECH). Raw bioluminescence values were normalized to DMSO control treated cells, and values were plotted in GraphPad Prism. […] Drug screens were performed in technical triplicate on each plate and either duplicate or triplicate biological replicates. […] Statistical differences between groups were determined by ANOVA as described in the figure legends.

EGFR H773insNPH = molecular target: T10, EGFR H773insNPH (Homo sapiens, UniProt P00533, INS773NPH); conditions: Ex20, 72 hours
T10 construct: expressed in transfected cells; host or cells: Ba/F3 cells, retroviral pBabe-Puro vector
Method: as §4, §2, §5

EGFR N771dupN G724S = molecular target: T11, EGFR N771dupN G724S (Homo sapiens, UniProt P00533, DUP771-771/G724S); conditions: Ex20, 72 hours
T11 construct: expressed in transfected cells; host or cells: Ba/F3 cells, retroviral pBabe-Puro vector (vector made by GeneScript from EGFR G724S, c.2313_2314insAAC)
Method: as §4, §2, §5

EGFR T790M = molecular target: T12, EGFR T790M (Homo sapiens, UniProt P00533, T790M); conditions: T790M-like-3S, 72 hours
T12 construct: expressed in transfected cells; host or cells: Ba/F3
Method: (§6) Data represent the ratio of the IC50 value for a given TKI for cells with a T790M-like-3S EGFR mutation to the IC50 value for cells with wildtype EGFR.
as §2
(§7) After 48-72 hours of transduction, 2 μg/ml puromycin (Invitrogen) was added to Ba/F3 cell lines in complete RPMI. To select for EGFR positive cell lines, cells were stained with PE-EGFR (Biolegend) and sorted by FACS. After sorting, EGFR positive cells were maintained in RPMI containing 10% FBS, 1% penicillin/streptomycin, and 1 ng/ml EGF to support cell viability. Drug screening was performed as previously described^41,42. Shortly, cells were plated in 384-well plates (Greiner Bio-One) at 2000-3000 cells per well in technical triplicate. Seven different concentrations of TKIs or DMSO vehicle were added to reach a final volume of 40 μL per well. After 72 hours, 11 μL of Cell Titer Glo (Promega) was added to each well. Plates were incubated for a minimum of 10 minutes, and bioluminescence was determined using a FLUOstar OPTIMA plate reader (BMG LABTECH). Raw bioluminescence values were normalized to DMSO control treated cells, and values were plotted in GraphPad Prism. […] Drug screens were performed in technical triplicate on each plate and either duplicate or triplicate biological replicates.

EGFR Ex19del T790M = molecular target: T13, EGFR Ex19del T790M (Homo sapiens, UniProt P00533, DEL746-750/T790M); conditions: T790M-like-3S, 72 hours
T13 construct: expressed in transfected cells; host or cells: Ba/F3

EGFR G719S T790M = molecular target: T14, EGFR G719S T790M (Homo sapiens, UniProt P00533, G719S/T790M); conditions: T790M-like-3S, 72 hours
T14 construct: expressed in transfected cells; host or cells: Ba/F3
Method: as §6, §2, §7

EGFR L718Q T790M = molecular target: T15, EGFR L718Q T790M (Homo sapiens, UniProt P00533, L718Q/T790M); conditions: T790M-like-3R, 72 hours
T15 construct: expressed in transfected cells; host or cells: Ba/F3
Method: (§8) Data represent the ratio of the IC50 value for a given TKI for cells with a T790M-like-3R EGFR mutation to the IC50 value for cells with wildtype EGFR.
as §2
(§9) After 48-72 hours of transduction, 2 μg/ml puromycin (Invitrogen) was added to Ba/F3 cell lines in complete RPMI. To select for EGFR positive cell lines, cells were stained with PE-EGFR (Biolegend) and sorted by FACS. After sorting, EGFR positive cells were maintained in RPMI containing 10% FBS, 1% penicillin/streptomycin, and 1 ng/ml EGF to support cell viability. […] Shortly, cells were plated in 384-well plates (Greiner Bio-One) at 2000-3000 cells per well in technical triplicate. Seven different concentrations of TKIs or DMSO vehicle were added to reach a final volume of 40 μL per well. After 72 hours, 11 μL of Cell Titer Glo (Promega) was added to each well. Plates were incubated for a minimum of 10 minutes, and bioluminescence was determined using a FLUOstar OPTIMA plate reader (BMG LABTECH). Raw bioluminescence values were normalized to DMSO control treated cells, and values were plotted in GraphPad Prism. […] Drug screens were performed in technical triplicate on each plate and either duplicate or triplicate biological replicates. […] Statistical differences between groups were determined by ANOVA as described in the figure legends.

EGFR L858R T790M L718V = molecular target: T16, EGFR L858R T790M L718V (Homo sapiens, UniProt P00533, L718V/L858R/T790M); conditions: T790M-like-3R, 72 hours
T16 construct: expressed in transfected cells; host or cells: Ba/F3
Method: as §8, §2, §9

EGFR Ex19del T790M C797S = molecular target: T17, EGFR Ex19del T790M C797S (Homo sapiens, UniProt P00533, C797S/DEL746-750/T790M); conditions: T790M-like-3R, 72 hours
T17 construct: expressed in transfected cells; host or cells: Ba/F3
Method: as §8, §2, §9

EGFR E709_T710del insD = molecular target: T18, EGFR E709_T710del insD (Homo sapiens, UniProt P00533, DEL709-709/T710D)
T18 construct: expressed in transfected cells; host or cells: Ba/F3
Method: (§10) Data represent the ratio of the IC50 value for a given TKI for cells with a PACC EGFR mutation to the IC50 value for cells with wildtype EGFR.
as §2, §7

EGFR E709A G719S = molecular target: T19, EGFR E709A G719S (Homo sapiens, UniProt P00533, E709A/G719S)
T19 construct: expressed in transfected cells; host or cells: Ba/F3

EGFR G719S = molecular target: T20, EGFR G719S (Homo sapiens, UniProt P00533, G719S)
T20 construct: expressed in transfected cells; host or cells: Ba/F3

EGFR G719A = molecular target: T21, EGFR G719A (Homo sapiens, UniProt P00533, G719A)
T21 construct: expressed in transfected cells; host or cells: Ba/F3

EGFR G719A L861Q = molecular target: T22, EGFR G719A L861Q (Homo sapiens, UniProt P00533, G719A/L861Q)
T22 construct: expressed in transfected cells; host or cells: Ba/F3
Method: as §10, §2, §7

EGFR I740dupIPVAK = tested on: EGFR I740dupIPVAK
Method: as §10, §2, §7

EGFR L747P = molecular target: T23, EGFR L747P (Homo sapiens, UniProt P00533, L747P)
T23 construct: expressed in transfected cells; host or cells: Ba/F3

EGFR V774M = molecular target: T24, EGFR V774M (Homo sapiens, UniProt P00533, V774M)
T24 construct: host or cells: Ba/F3
Method: as §10, §2, §7

EGFR R776C = molecular target: T25, EGFR R776C (Homo sapiens, UniProt P00533, R776C)
T25 construct: host or cells: Ba/F3

EGFR L858R/L792H = molecular target: T26, EGFR L858R/L792H (Homo sapiens, UniProt P00533, L792H/L858R)
T26 construct: expressed in transfected cells; host or cells: Ba/F3
Method: as §10, §2, §7

Row | SMILES | ratio of IC50 for cells with mutant EGFR to IC50 for cells with wildtype EGFR (Mut/WT) (EGFR E709K L858R) | ratio of IC50 for cells with mutant EGFR to IC50 for cells with wildtype EGFR (Mut/WT) (EGFR L833F) | ratio of IC50 for cells with mutant EGFR to IC50 for cells with wildtype EGFR (Mut/WT) (EGFR Ex19del) | ratio of IC50 for cells with mutant EGFR to IC50 for cells with wildtype EGFR (Mut/WT) (EGFR L858R S784F) | ratio of IC50 for cells with mutant EGFR to IC50 for cells with wildtype EGFR (Mut/WT) (EGFR S720P) | ratio of IC50 for cells with mutant EGFR to IC50 for cells with wildtype EGFR (Mut/WT) (EGFR L861Q) | ratio of IC50 for cells with mutant EGFR to IC50 for cells with wildtype EGFR (Mut/WT) (EGFR A763insFQEA) | ratio of IC50 for cells with mutant EGFR to IC50 for cells with wildtype EGFR (Mut/WT) (EGFR A763insLQEA) | ratio of IC50 for cells with mutant EGFR to IC50 for cells with wildtype EGFR (Mut/WT) (EGFR S768dupSVD) | ratio of IC50 for cells with mutant EGFR to IC50 for cells with wildtype EGFR (Mut/WT) (EGFR H773insNPH) | ratio of IC50 for cells with mutant EGFR to IC50 for cells with wildtype EGFR (Mut/WT) (EGFR N771dupN G724S) | ratio of IC50 for cells with mutant EGFR to IC50 for cells with wildtype EGFR (Mut/WT) (EGFR T790M) | ratio of IC50 for cells with mutant EGFR to IC50 for cells with wildtype EGFR (Mut/WT) (EGFR Ex19del T790M) | ratio of IC50 for cells with mutant EGFR to IC50 for cells with wildtype EGFR (Mut/WT) (EGFR G719S T790M) | ratio of IC50 for cells with mutant EGFR to IC50 for cells with wildtype EGFR (Mut/WT) (EGFR L718Q T790M) | ratio of IC50 for cells with mutant EGFR to IC50 for cells with wildtype EGFR (Mut/WT) (EGFR L858R T790M L718V) | ratio of IC50 for cells with mutant EGFR to IC50 for cells with wildtype EGFR (Mut/WT) (EGFR Ex19del T790M C797S) | further results
1 | CN(C)C/C=C/C(=O)Nc1cc2c(Nc3ccc(Cl)c(Br)c3)ncnc2cn1 [Tarlox-TKI] | 0.005792 | 0.07887 | 0.01427 | 0.001643 | 0.02412 | 0.05346 | 0.05463 | 0.0269 | 0.3065 | 11.56 | 0.8301 | 4.92 | 14.38 | 3.949 | 16.46 | 151.6 | 33.62 | ratio of IC50 for cells with mutant EGFR to IC50 for cells with wildtype EGFR (Mut/WT) (EGFR E709_T710del insD; PACC, E709_T710del insD, Ba/F3, 72 hours): 0.782; ratio of IC50 for cells with mutant EGFR to IC50 for cells with wildtype EGFR (Mut/WT) (EGFR E709A G719S; PACC, E709A G719S, Ba/F3, 72 hours): 0.1143; ratio of IC50 for cells with mutant EGFR to IC50 for cells with wildtype EGFR (Mut/WT) (EGFR G719S; PACC, G719S, Ba/F3, 72 hours): 0.002634; ratio of IC50 for cells with mutant EGFR to IC50 for cells with wildtype EGFR (Mut/WT) (EGFR G719A; PACC, G719A, Ba/F3, 72 hours): 0.01637; ratio of IC50 for cells with mutant EGFR to IC50 for cells with wildtype EGFR (Mut/WT) (EGFR G719A L861Q; PACC, G719A L861Q, Ba/F3, 72 hours): 0.4976; ratio of IC50 for cells with mutant EGFR to IC50 for cells with wildtype EGFR (Mut/WT) (EGFR I740dupIPVAK; PACC, I740dupIPVAK, Ba/F3, 72 hours): 0.5725; ratio of IC50 for cells with mutant EGFR to IC50 for cells with wildtype EGFR (Mut/WT) (EGFR L747P; PACC, L747P, Ba/F3, 72 hours): 2.085; ratio of IC50 for cells with mutant EGFR to IC50 for cells with wildtype EGFR (Mut/WT) (EGFR V774M; PACC, V774M, Ba/F3, 72 hours): 0.2507; ratio of IC50 for cells with mutant EGFR to IC50 for cells with wildtype EGFR (Mut/WT) (EGFR R776C; PACC, R776C, Ba/F3, 72 hours): 0.02009; ratio of IC50 for cells with mutant EGFR to IC50 for cells with wildtype EGFR (Mut/WT) (EGFR L858R/L792H; PACC, L858R/L792H, Ba/F3, 72 hours): 0.346
2 | C=CC(=O)N1CC[C@@H](Oc2nc(Nc3ccc(N4CCC(N5CCN(C)CC5)CC4)cc3)c(C(N)=O)nc2CC)C1 [Naquotinib] | 0.0818 | 0.03054 | 0.006035 | 0.1921 | 0.03397 | 0.1616 | 0.1912 | 0.3419 | 1.135 | 1.077 | 2.781 | 0.4037 | 0.009604 | 0.1409 | 1.576 | 0.6413 | 14.64 | ratio of the IC50 value for cells with a PACC EGFR mutation to the IC50 value for cells with wildtype EGFR (EGFR E709_T710del insD; Ba/F3 cells, EGFR E709_T710del insD (PACC), Mut/WT): 0.497; ratio of the IC50 value for cells with a PACC EGFR mutation to the IC50 value for cells with wildtype EGFR (EGFR E709A G719S; Ba/F3 cells, EGFR E709A G719S (PACC), Mut/WT): 0.3574; ratio of the IC50 value for cells with a PACC EGFR mutation to the IC50 value for cells with wildtype EGFR (EGFR G719S; Ba/F3 cells, EGFR G719S (PACC), Mut/WT): 0.2727; ratio of the IC50 value for cells with a PACC EGFR mutation to the IC50 value for cells with wildtype EGFR (EGFR G719A; Ba/F3 cells, EGFR G719A (PACC), Mut/WT): 0.1344; ratio of the IC50 value for cells with a PACC EGFR mutation to the IC50 value for cells with wildtype EGFR (EGFR G719A L861Q; Ba/F3 cells, EGFR G719A L861Q (PACC), Mut/WT): 0.03136; ratio of the IC50 value for cells with a PACC EGFR mutation to the IC50 value for cells with wildtype EGFR (EGFR I740dupIPVAK; Ba/F3 cells, EGFR I740dupIPVAK (PACC), Mut/WT): 0.5025; ratio of the IC50 value for cells with a PACC EGFR mutation to the IC50 value for cells with wildtype EGFR (EGFR L747P; Ba/F3 cells, EGFR L747P (PACC), Mut/WT): 3.507; ratio of the IC50 value for cells with a PACC EGFR mutation to the IC50 value for cells with wildtype EGFR (EGFR V774M; Ba/F3 cells, EGFR V774M (PACC), Mut/WT): 0.2862; ratio of the IC50 value for cells with a PACC EGFR mutation to the IC50 value for cells with wildtype EGFR (EGFR R776C; Ba/F3 cells, EGFR R776C (PACC), Mut/WT): 4.27; ratio of the IC50 value for cells with a PACC EGFR mutation to the IC50 value for cells with wildtype EGFR (EGFR L858R/L792H; Ba/F3 cells, EGFR L858R/L792H (PACC), Mut/WT): 0.2624

— US20240384350A1, “METHODS OF TREATING CANCER WITH KINASE INHIBITORS” (BOARD OF REGENTS, THE UNIVERSITY OF TEXAS SYSTEM, priority 2021, published 2024)
